Experiment [1] has as its system LLO haemolytic activity of L. monocytogenes EGDe. Kind of experiment: LLO haemolytic activity testing of culture supernatants. In kind it is cell-based, Listeria monocytogenes EGDe. Particulars: sheep red blood cells. How it is done:
Overnight cultures of L. monocytogenes EGDe were harvested by centrifugation and resuspended in an equal volume of fresh BHB medium. In 1.5 mL Eppendorf tubes, 400 μL of BHB medium were inoculated with 4 μL of the resuspended Listeria culture and 4 μL of a corresponding beta-lactone stock in DMSO. The final concentrations were 800 μM, 400 μM, 200 μM, 100 μM and DMSO as control. The amount of DMSO in all tests was 1% of the medium. After mixing, the test tubes were incubated under continuous shaking at 200 rpm at 37° C. for 16 h. Then, cells were centrifuged and the supernatants filtered sterile by passing them through a 0.2 μm pore size filter. Haemolytic activity of LLO in the culture supernatants was quantitatively investigated according to a method described in J. Food Safety 1998, 18: 197-203 (incorporated herein by reference) with some modifications. In Nunclon™ 96-well plates with round shaped wells 100 μL of serial dilutions of the supernatants in PBS were added per well and incubated with 100 μL of 3% SRBC (sheep red blood cells) resuspended in PBS for 15 min at 37° C. under gentle shaking. The 96-well plates were centrifuged at 600 rpm for 5 min and the minimum dilution at which intact blood cells began to form a pellet was recorded. Controls with no lactone were set 100%. Buffer only controls and pure BHB medium yielded no haemolysis.

For experiment [2], the system named is extracellular DNase of S. aureus. Nature of the experiment: DNase assay using DNA containing agar plates. In kind it is cell-based, Staphylococcus aureus. Particulars: 250 nmol. The source says:
FIG. 4: Agar plate-based virulence assays.
A dose down in FIG. 5 indicates the different potencies of structurally diverse ClpP inhibitors for E2, G2 and D3. […] Extracellular DNase also is part of the S. aureus virulence factors. Its purpose is to destroy the hosts DNA and provide a nutritional source for S. aureus.

Experiment [3] addresses T1, Aldehyde dehydrogenase B (ADB) (Escherichia coli, UniProt P37685).
T1 construct: endogenous in cells; host or cells: Escherichia coli K12 lysate, cytosol fraction
Nature of the experiment: ABPP labeling of E. coli cytosol. The experiment is classed as binding. Particulars: 100 nM probe concentration, no other off targets. The protocol:
To estimate the strength of probe interactions with proteins in the proteome, we compared the reactivity profiles of selected beta-lactones across a broad concentration range from 10 μM to 5 nM.
Proteome samples were adjusted to a final concentration of 1 mg protein/mL by dilution in PBS prior to probe labeling. Experiments for visualization by 1D SDS-PAGE were carried out in 43 μL total volume and those for affinity enrichment in 1892 μL total volume, such that once CC reagents were added, the total reaction volume was 50 μL and 2 mL, respectively. Reactions were initiated by addition of the probe and allowed to incubate for 60 min at room temperature. For heat controls the proteome was denatured with 1 μL of 43% SDS at 95° C. for 6 min and cooled to room temperature before the probe was applied. Following incubation, reporter tagged-azide reagents (13 μM rhodamine-azide for analytical or 20 μM rhodamine-biotin-azide for preparative scale) were added followed by 1 mM TCEP and 100 μM ligand. Samples were gently vortexed and the cycloaddition initiated by the addition of 1 mM CuSO4. The reactions were incubated at room temperature for 1 h (Speers, J. Amer. Chem. Soc. 125 (2003), 4686).

Experiment [4] concerns the target T2, ClpP (Listeria monocytogenes serovar 1/2a, UniProt Q9RQI6).
T2 construct: endogenous in cells; host or cells: living Listeria monocytogenes EGDe, stationary phase
Kind of experiment: In vivo labeling of Listeria proteomes. In kind it is cell-based. The following applies: living L. monocytogenes EGDe, cytosol, 2 h incubation. How it is done: For analytical and preparative in vivo studies, Listeria were grown to stationary phase and harvested by centrifugation at 4,000 rpm 1 h after entrance in the stationary phase (1.5 ml for analytical and 15 ml for preparative studies). The cell pellets were washed once with PBS and resuspended in 100 μL and 500 μL PBS for analytical and preparative studies, respectively. The cell suspensions were incubated for 2 h with varying concentrations of probe at room temperature. Probes were applied from DMSO stocks whereby DMSO never exceeded 2% in the final solution. For preparative experiments, 50 μM of the probes was added to the cells resuspended in PBS. After incubation, the cells were washed thoroughly three times with PBS to remove excess probe from the supernatant. Subsequently the cells were lysed in 100 μL (500 μL) PBS by sonication with a Bandelin Sonopuls with 3×20 sec. pulsed at 70% max. power. For analytical experiments 44 μL proteome were used to append a reporter tag via CC, such that once CC reagents were added, the total reaction volume was 50 μL. In preparative purposes the total volume of 500 μL it was consumed per experiment. Reporter tagged-azide reagents (13 μM rhodamine-azide for analytical or 20 μM rhodamine-biotin-azide for preparative scale) were added followed by 1 mM TCEP and 100 μM ligand. Samples were gently vortexed and the cycloaddition initiated by the addition of 1 mM CuSO4. The reactions were incubated at room temperature for 1 h. For analytical gel electrophoresis, 50 μL 2×SDS loading buffer were added and 50 μL applied on the gel. Fluorescence was recorded in a Fujifilm Las-3000 Fluoreszenz Darkbox with a Fujinon VRF 43LMD Lens, 605DF40 filter and 520 nm EPI excitation wavelength.

In experiment [5] the test system is proteolysis abilities of Staphylococcus aureus. Kind of experiment: Milk agar plate-based proteolysis assay. In kind it is cell-based. How it is done:
FIG. 6: Milk agar plate-based assay illustrating that beta-lactones have an effect on the proteolysis abilities of Staphylococcus aureus. 2.5 μL of S. aureus LB dilution (OD600=0.13 corresponding to approx. 1×10^8 cfu/ml) and 2.5 μL DMSO/beta-lactone in DMSO were applied on Whatman Cards placed on 1% skim milk LB agar plates and incubated at 37° C. over night. A) Direct comparison of beta-lactones as shown in FIG. 2 at a total amount of 250 nmol applied on Whatman Cards. B) Dose down with beta-lactones D3, E2 and G2 at applied concentrations of 100 mM, 50 mM, 25 mM, 12.5 mM, 6.25 mM and 0 mM (corresponding to total amounts of 250 nmol, 125 nmol, 62.5 nmol, 31.3 nmol, 15.6 nmol and 0 nmol, respectively). C) Proteolysis zone size plotted against the total amount of the respective beta-lactone.
2.5 μL of S. aureus LB dilution (OD600=0.13 corresponding to approx. 1×10^8 cfu/ml) and 2.5 μL DMSO/beta-lactone in DMSO were applied on Whatman Cards placed on 1% skim milk LB agar plates and incubated at 37° C. over night. FIG. 6A directly compares the β-lactones at a total amount of 250 nmol applied on Whatman Cards. […] For D3 and E2 almost no proteolysis is observed down to a total amount of 125 nmol of the respective beta-lactone. FIG. 6C illustrates that the proteolysis zone size plotted against the total amount of beta-lactone visualizes the strong effects particularly of D3 and E2.

T1 sequence (P37685 whole entry): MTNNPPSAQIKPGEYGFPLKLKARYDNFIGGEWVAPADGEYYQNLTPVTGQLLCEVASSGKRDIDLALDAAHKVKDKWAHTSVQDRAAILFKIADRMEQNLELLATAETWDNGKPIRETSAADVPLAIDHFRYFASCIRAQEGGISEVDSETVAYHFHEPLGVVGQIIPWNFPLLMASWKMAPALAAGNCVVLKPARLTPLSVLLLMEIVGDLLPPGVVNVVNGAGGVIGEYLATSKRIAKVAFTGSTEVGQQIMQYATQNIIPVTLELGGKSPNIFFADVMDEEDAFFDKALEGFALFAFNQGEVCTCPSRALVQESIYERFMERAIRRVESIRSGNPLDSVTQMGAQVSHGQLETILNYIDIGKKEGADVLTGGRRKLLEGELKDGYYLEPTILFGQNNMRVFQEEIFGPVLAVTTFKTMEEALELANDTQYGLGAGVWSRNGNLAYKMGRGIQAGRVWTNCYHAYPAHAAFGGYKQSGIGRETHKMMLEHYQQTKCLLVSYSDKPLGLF
T2 sequence (Q9RQI6 whole entry): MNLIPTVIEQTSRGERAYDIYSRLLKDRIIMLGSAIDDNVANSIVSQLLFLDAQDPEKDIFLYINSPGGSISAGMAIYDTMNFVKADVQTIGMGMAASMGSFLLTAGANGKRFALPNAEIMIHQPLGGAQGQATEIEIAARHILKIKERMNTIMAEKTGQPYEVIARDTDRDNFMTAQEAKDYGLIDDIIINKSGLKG

As to `C#CCCCC1OC(=O)C1CCCCCCCC=C` (stereo not drawn) [D3, trans-3-(8-nonen-1-yl)-4-(4-pentyn-1-yl)oxetan-2-one], the EC50 in experiment [1] (Listeria monocytogenes, Erythrocyte, cultures grown 16 h with lactone, read-out: EC50 of reduction of LLO haemolytic activity) came to 100 µM. For the same compound, the “reduction (inhibition) of haemolytic activity” value in experiment [1] (cultures grown 16 h with 100-800 μM lactone) turned out to be 80%. Besides, the “amount of extracellular DNase” value in experiment [2] was “effect”. Further, the ADB labeling preference result in experiment [3] is “strong preference”. Also, the “ClpP labeling (probe potency ranking)” value in experiment [4] is “most potent probes”. Also, the “total amount down to which almost no proteolysis is observed” value in experiment [5] (dose down 250-15.6 nmol) came to 125 nmol. In experiment [5] (total amount of 250 nmol applied on Whatman Cards, 1% skim milk LB agar, 37° C. over night), the “proteolytic activity of S. aureus” value is on record as “strongly reduce”.

Usually EC50 stands for the midpoint of the concentration-response curve.

(Values after patent publication US9521845B2, “Beta-lactones as antibacterial agents” (LUDWIG-MAXIMILIANS-UNIVERSITÄT-MÜNCHEN, priority 2008, dated 2016).)
